Consider 1 molecule from patent US12274683B2 (Bayer HealthCare LLC, priority 2019, dated 2025).

The test system of the test is inflammation/edema induced by carrageenan-injection into the footpads of Sprague Dawley (SD) rats. Briefly: Carrageenan-induced inflammation rat paw test (Example 3). The note with it: at necropsy about 24 h post-carrageenan, N=10, SE in line below. Background: In the carrageenan paw model, swelling and tenderness develop within hours.

Procedure: Efficacy evaluation was based on gait analysis, von Frey absolute thresholds and ankle caliper differentials recorded over 24 h after initial carrageenan injection, and paw differential weights following euthanasia of the test subjects.
Experimental Design. Male Sprague Dawley (Envigo RMS, Inc., Indianapolis) were weighed on Day 1 (mean 285 g) and randomized by body weight into treatment groups. On Day 0-1, animals in Groups 3-11 were dosed with topical compounds on 2-minute intervals according to the dose schedules in Table 10. […] Gait and von Frey analyses were conducted at time points of 2 h, 4 h, 6 h, 8 h, and 24 h post-carrageenan injection; ankle caliper measurements were taken immediately following gait assessment. […]
Gait Analysis. […] Gait was scored visually as follows (descriptions refer to diseased leg): • 0=Normal, approximately equal ink staining to normal paw. • 1=Slight limp/pain. […]
Testing began with three applications of the 4.31 hair. […] Responses were recorded as either a 0 (no response) or a 1 (response). […]
Testing was done on hind (heel) portions of the hind paw. Testers monitored the animals for hyper-responding or freezing, in which case animals were left alone until calm.

On to `COc1ccc2cc([C@H](C)C(=O)O)ccc2c1` [Naproxen (oral), Naproxen], for which the “Paw Weight Difference (R − L)” value is “‡0.410 g”. Besides, the “Paw Weight Difference (R − L)” value (listed as oral Naproxen) is listed as “significantly reduced”.
